Format in all cases: functional, organism-based
What all share (set-up): conc 20 uM

In assay [1] the test system is Mycobacterium tuberculosis. As to the kind of experiment: (§1) Inhibition of mycobacterial growth using the resazurin microtitre cell viability assay (REMA), compounds at final concentration of 20 µM (2% v/v DMSO). Hits were classed as compounds that inhibited bacterial growth by 70% or more compared to drug-free controls. The following applies: H37Rv.
Assay [2] concerns Mycobacteroides abscessus. Described as §1. To be noted: ATCC19977.
For assay [3], the system named is Mycobacterium intracellulare subsp. chimaera. The assay is described as §1. To be noted: NCTC13781.

With MMV000063, the Survival was 90.6% in assay [1], 120% in assay [2] and 99.8% in assay [3].
For MMV026490 the same measures were 88.9%, 115% and 104%.
On the same counts, the results for MMV1028806 are 26.7%, 116% and 100%.
On the same counts, the results for MMV690028 are 95.8%, 120% and 92.3%.
In the case of MMV687798, the Survival is 7.23% in assay [1], 11.5% in assay [2] and 1.47% in assay [3].
On the same counts, the results for MMV676480 are 106%, 104% and 104%.
On the same counts, the results for MMV689000 are 89.8%, 115% and 101%.
On the same counts, the results for MMV021375 are 89.6%, 111% and 93.8%.
For MMV667494, the Survival in assay [1] was 84.1%; in assay [2] it was 110%; in assay [3] it was 95.7%.
As for MMV687730, the Survival is 71.2% in assay [1], 18.8% in assay [2] and 87.3% in assay [3].
On the same counts, the results for MMV688416 are 99.5%, 103% and 94.7%.
For MMV687138 the same measures were 56.3%, 102% and 104%.
On the same counts, the results for MMV688891 are 101%, 109% and 113%.
Regarding MMV026313, the Survival in assay [1] was 82.9%; in assay [2] it was 100%; in assay [3], 86.2%.
For MMV688921 the same measures were 110%, 110% and 109%.
As for MMV676461, the Survival in assay [1] is 78.3%; in assay [2], 114%; in assay [3] it was 104%.
For MMV495543 the same measures were 85.3%, 84.2% and 86.9%.
For MMV676050 the same measures were 84.8%, 110% and 95.8%.
In the case of MMV006833, the Survival is 93.7% in assay [1], 126% in assay [2] and 115% in assay [3].
In the case of MMV688469, the Survival in assay [1] was 90.9%; in assay [2], 87.3%; in assay [3] it was 82.8%.
As to MMV020520, the results for the Survival in assay [1], in assay [2] and in assay [3] were 104%, 125% and 113%, respectively.
For MMV020391 the same measures were 95.4%, 108% and 91.8%.
Take MMV023953: the Survival in assay [1] was 100%; in assay [2], 104%; in assay [3] it was 93.7%.
For MMV688853 the same measures were 94.5%, 111% and 102%.
For MMV688704 the same measures were 92.8%, 106% and 98.7%.
On the same counts, the results for MMV689255 are 89.2%, 124% and 109%.
Turning to MMV676476, the Survival in assay [1] was 72.8%; in assay [2], 108%; in assay [3], 100%.
On the same counts, the results for MMV019721 are 104%, 121% and 114%.
Take MMV687794: the Survival in assay [1] was 90.9%; in assay [2], 109%; in assay [3] it was 99.9%.
Consider MMV102872, for which the Survival in assay [1] was 18.3%; in assay [2], 114%; in assay [3] it was 97.7%.
In the case of MMV676602, the Survival in assay [1] is 105%; in assay [2] it was 95.5%; in assay [3] it was 111%.
Turning to MMV023949, the results for the Survival in assay [1], in assay [2] and in assay [3] were 92.7%, 116% and 90.5%, respectively.
For MMV687775 the same measures were 91%, 122% and 98.2%.
On the same counts, the results for MMV1198433 are 105%, 98.6% and 112%.
For MMV019838 the same measures were 84.2%, 124% and 81.2%.
Consider MMV021660, for which the Survival in assay [1] was 67.5%; in assay [2] it was 102%; in assay [3] it was 107%.
On the same counts, the results for MMV010576 are 106%, 112% and 99%.
For MMV659010 the same measures were 85.6%, 112% and 91.7%.
On the same counts, the results for MMV019790 are 90.2%, 107% and 102%.
Take MMV020591: the values for the Survival in assay [1], in assay [2] and in assay [3] were 106%, 113% and 112%, respectively.
For MMV676395 the same measures were 2.49%, 111% and -0.21%.
For MMV676558 the same measures were 90.9%, 110% and 100%.
On the same counts, the results for MMV688776 are 127%, 115% and 100%.
Turning to MMV675969, the Survival in assay [1] is 95.8%; in assay [2], 93.7%; in assay [3], 107%.
In the case of MMV020670, the Survival in assay [1] was 99.7%; in assay [2], 110%; in assay [3], 93%.
For MMV676379 the same measures were 98%, 116% and 87.9%.
On the same counts, the results for MMV461553 are 42.2%, 103% and 7.21%.
With MMV019234, the Survival was 78.1% in assay [1], 125% in assay [2] and 92.9% in assay [3].
On the same counts, the results for MMV011511 are 88%, 112% and 104%.
On the same counts, the results for MMV688958 are 91.1%, 109% and 97.7%.
On the same counts, the results for MMV676053 are 89.4%, 97.1% and 105%.
For the substance MMV001499, the Survival is 93.2% in assay [1], 125% in assay [2] and 101% in assay [3].
For MMV687747 the same measures were 63.6%, 108% and 90.2%.
As to MMV688274, the Survival is 86% in assay [1], 113% in assay [2] and 112% in assay [3].
On the same counts, the results for MMV006741 are 85.7%, 111% and 96.4%.
For MMV084864 the same measures were 84.2%, 101% and 100%.
On the same counts, the results for MMV688262 are 8.6%, 106% and 113%.
Regarding MMV008439, the figures for the Survival in assay [1], in assay [2] and in assay [3] were 106%, 112% and 99.8%, respectively.
For MMV676358 the same measures were 98.4%, 114% and 92.3%.
For MMV611037 the same measures were 92.7%, 106% and 105%.
For MMV085230 the same measures were 93.7%, 118% and 111%.
MMV688472: the results for the Survival in assay [1], in assay [2] and in assay [3] were 98%, 103% and 92.3%, respectively.
For MMV020320 the same measures were 42.2%, 113% and 98.9%.
On the same counts, the results for MMV099637 are 109%, 98.4% and 95.3%.
As for MMV002817, the Survival in assay [1] is 90.6%; in assay [2], 118%; in assay [3] it was 100%.
On the same counts, the results for MMV085499 are 90.8%, 106% and 112%.
For MMV688508 the same measures were 7.31%, 18.6% and -0.22%.
For MMV1088520 the same measures were 102%, 110% and 98.2%.
Consider MMV031011, for which the Survival in assay [1] was 99.4%; in assay [2], 109%; in assay [3] it was 89.4%.
With MMV687699, the Survival was 53.6% in assay [1], 114% in assay [2] and 93.8% in assay [3].
On the same counts, the results for MMV689061 are 122%, 118% and 127%.
With MMV688763, the Survival in assay [1] was 21.8%; in assay [2] it was 122%; in assay [3], 99.1%.
For MMV020537 the same measures were 94.1%, 105% and 62.7%.
For MMV010545 the same measures were 91.4%, 111% and 86.4%.
On the same counts, the results for MMV689029 are 86.9%, 119% and 93.5%.
With MMV153413, the Survival in assay [1] was 26.5%; in assay [2] it was 111%; in assay [3], 9.37%.

(Values after ChEMBL document CHEMBL4665541, “Search for new therapeutic options for the uncommon pathogen Mycobacterium chimaera: an open drug discovery approach” (Lancet Microbe, 2021).)
